Data reported in US20130096054A1, “LATENT HUMAN IMMUNODEFICIENCY VIRUS REACTIVIATION” (priority 2010, published 2013).
Values joined by “and” are separate entries in the source; they are usually repeats but may differ in a detail not shown here. Identical values can stand only once. *1 amine or outer side, *2 acyl side, *3 side chain or, on linkers, in order; H or OH if unused. Where a SMILES comes first, the peptide text is derived from it. Bridges are numbered along the chain shown (N, C = ends). Roman numbers before positions name the chains, in order. [ ]: non-standard residue; d: D form. Actinocin(9to1) = Cc1c2oc3c(C)ccc(C(=O)[*:1])c3nc-2c(C(=O)[*:2])c(N)c1=O; NMeV = CN[C@H](C(=O)O)C(C)C; Sar = CNCC(=O)O

Legend:
[1] = test system: latently HIV-1 infected CA5 T cells
Description: CA5 T cells were pretreated with increasing concentrations of dactinomycin (DM) (FIG. 11A), the DNA intercalator daunorubicin (DR) (FIG. 11B), or the transcription inhibitors DRB (FIG. 11 C) and α-amanitin (FIG. 11D) (concentrations indicated). The cells were then left unstimulated (white circles) or activated with a sub-optimal concentration of HRF (black circles). Reactivation levels were determined as the percentage of GFP-positive cells 24 hours after stimulation. Viability of the cells correlates with the size of the symbol (size range adjusted to 5-95%).
Infection levels in the cell cultures were monitored by flow cytometric analysis of EGFP expression. Flow cytometric analysis was performed on a GUAVA EasyCyte (Millipore; Billerica, Mass.), or a LSRII (Becton & Dickinson; Franklin Lakes, N.J.).
Bacteria from various sources were isolated on TSA II agar plates containing 5% sheep blood. Bacterial isolates were then grown in RPMI 1640 medium supplemented with 10% FBS. After two days of incubation at 37° C. bacteria were pelleted and resuspended in RPMI medium to an optical density (OD600) of 8, aliquoted and frozen at −80° C. Unless otherwise indicated, Massilia timonae was grown in RPMI 1640 medium supplemented with 10% FBS. Typically, medium was inoculated with Massilia timonae from frozen stocks to an OD600 of 0.01. After 48 hours at 37° C., the culture was centrifuged at 3200 g to separate bacteria from the culture medium. Bacteria were resuspended in fresh medium to an OD600 of 8 and frozen to be used as references and stock cultures. The supernatant was then centrifuged at 10,000 g for 20 minutes and sterilized by passage through an 0.2 μm PVDF filter with low protein binding ability. HRF activity was determined by its ability to reactivate latent HIV-1 infection in CA5 cells. Only supernatants of which 6 μl reactivated infection in at least 60% of CA5 cells were used to study HRF properties.
(§1) Infection levels in the cell cultures were monitored by flow cytometric (FCM) analysis of GFP expression. FCM analysis was performed on a GUAVA EasyCyte (GUAVA Technologies, Inc.; Millipore; Billerica, Mass.) and a BD FACSCalibur or a LSR11 (Becton & Dickinson; Franklin Lakes, N.J.). Cell sorting experiments were performed using a FACSAria™ Flow Cytometer (Becton&Dickinson). Data analysis was performed using either CellQuest (Becton&Dickinson) or GUAVA Express (GUAVA Technologies, Inc.).
To identify the optimal concentration of dactinomycin, CA5 T cells were pretreated with increasing concentrations of dactinomycin (0.0001 and 1 μg/ml), and then left untreated or stimulated with a sub-optimal concentration of HRF or TNF-α. […] Twenty four hours after activator addition, levels of HIV-1 reactivation were determined as the percentage of GFP-positive cells using flow cytometric analysis, which allowed for the simultaneous determination of cell viability.

[2] = test system: latently HIV-1 infected EF7 cells; assay: HIV-1 reactivation in latently HIV-1 infected EF7 T cells (converse sense integration); format: cell-based; settings: TNF-α after 4 ng/ml dactinomycin for 18 hours
Description: FIGS. 13A-B show the effect of dactinomycin on latent infection as a function of the orientation of integration relative to the direction of host-gene transcription. HIV-1 can integrate in the same transcriptional orientation as the host-gene or in the converse sense. Two latently HIV-1 infected T cell lines, which were determined to have HIV-1 integrated in the same sense orientation (CA5 cells) (FIG. 13A) and in the converse sense orientation (EF7 cells) (FIG. 13B) were used. For either cell line, the host-gene name, the position of integration and the chromosome number is given. For either T cell line, reactivation levels achieved by TNF-α treatment alone or by TNF-α stimulation following pretreatment with 4 ng/ml dactinomycin for 18 hours are shown. Reactivation levels were determined using flow cytometric analysis for GFP expression. The gray dotted line represents maximum achievable reactivation levels using PMA.

[3] = test system: chronically actively infected T cell lines JNLG#35 and JNLG#44; assay: Active HIV-1 transcription in chronically actively infected GFP-reporter T cells (GFP MCF); format: cell-based; settings: 48 hours after addition
Description: Changes in HIV-1 transcription levels were determined after 48 hours by measuring GFP mean channel fluorescence intensity (GFP MCF). GFP MCF was plotted over the drug concentration for dactinomycin (FIG. 12A), the DNA intercalators daunorubicin (DM) (FIG. 12B) and rebeccamycin (RM) (FIG. 12C), as well as the transcription inhibitors ICRF-193 (FIG. 12D), DRB (FIG. 12E) and α-amanitin (FIG. 12F). The size of symbols indicates the respective cell viability in the sample (size range adjusted to 5-95%).
For this purpose, each of the compounds was titrated over a relevant range of concentrations on two chronically actively infected T cell lines (JNLG#35 and JNLG#44). These clonal cell lines are infected with a GFP-reporter virus. Forty eight hours after addition of the compounds, the effect of each compound on HIV-1 transcription was determined by flow cytometric analysis quantifying GFP mean channel fluorescence intensity (MCF).

[4] = test system: latently HIV-1 infected J89GFP T cells; assay: HIV-1 reactivation in latently HIV-1 infected J89GFP T cells (flow cytometry / HTS); format: cell-based
Description: as §1

[5] = test system: latently HIV-2 infected J2574 reporter T cells (HIV-2 7312A); assay: Reactivation of latent HIV-2 infection in J2574 reporter T cells; format: cell-based
Description: J2574 reporter T cells were infected with HIV-2 7312A and a latently infected cell population was established (>90% latently infected cells). The cell population was then pretreated with varying concentrations of dactinomycin (0-8 ng/ml) for 18 hours and then either left untreated (C) or stimulated with a sub-optimal dose of HRF, which by itself triggered reactivation in 10% of the cells. Reactivation levels were determined 24 hours post HRF activation by quantifying the level of GFP-positive cells using flow cytometric analysis.
J2574 reporter T cells were generated by retrovirally transducing Jurkat T cells with a HIV-1 reporter construct (p2574) in which the HIV-1 LTR controls the expression of GFP. The HIV-1 LTR and the GFP gene are separated by a 2,500 base pair (bp) spacer element. Lentiviral particles were produced by transfecting 293T cells with p2574 and supplying gag-pol-rev-tat in trans. VSV-G was used as viral envelope protein. Following lentiviral transduction of Jurkat cells, all cells that spontaneously expressed GFP were removed by cell sorting. The GFP-negative population was then activated with PMA to identify all cells that would harbor an inducible LTR-GFP-LTR integration event. Cells that turned GFP-positive following stimulation were again selected by cell sorting. GFP expression in this population ceased after a few days leaving a population of GFP-negative reporter cells. The amount of founder cells for this population is calculated to represent >50,000 individual integration events.
To determine the ability of dactinomycin to prime a latent HIV-2 infection, a latently HIV-2 infected population of GFP reporter T cells were tested. Briefly, to create the latent HIV-2 infected population, J2574 reporter cells were infected with HIV-2 7312A and a population of latently HIV-2 infected cells was generated by removing the actively infected, GFP-positive cells using a fluorescence activated cell sorter.

[6] = test system: latently HIV-1 infected reporter T cell lines (5F3, 8E12, CA5 and 12D4); assay: HIV-1 reactivation in latently HIV-1 infected reporter T cell lines (EGFP, flow cytometry); format: cell-based
Description: FIGS. 1A and 1B show culture supernatants from Massilia timonae reactivate latent HIV-1 infection. […] Untreated control cells and HRF-treated cells were subjected to flow cytometric analysis to determine enhanced green fluorescent protein (EGFP) expression as a direct and quantitative marker of HIV-1 expression 24 hours post stimulation. FSC/SSC dot plots are represented to evaluate cell viability as a function of changes in the FSC (cell size)—SSC (granularity) phenotype of the cells. FIG. 1B is a histogram showing the reproducibility of the observed HIV-1 reactivation. Three independent preparations of HRF (batches HRF1-3) on four different latently infected T cell lines (5F3, 8E12, CA5 and 12D4) were tested. The percentage of EGFP positive cells following stimulation is depicted in the histogram. Cell culture supernatants of Pseudomonas aeruginosa cultures, grown under similar conditions, were used as specificity controls.

[7] = test system: latently HIV-1 infected monocytic THP89GFP cells; assay: HIV-1 reactivation in latently HIV-1 infected monocytic THP89GFP cells; format: cell-based

Compound | concentration at which it starts to act as an inhibitor of HIV-1 expression and reactivation (onset of drug toxicities) [1] [ng/mL] | priming effects with low concentrations of TNF-α or PMA as reactivating agents [1] | concentration of optimal priming activity ([1]; 18 hours pretreatment, then sub-optimal HRF or TNF-α) | priming effect, virus integrated in same transcriptional orientation as host-gene ([1]; TNF-α after 4 ng/ml dactinomycin for 18 hours) | priming effect on HIV-1 reactivation by sub-optimal dose of HRF ([1]; pretreatment with increasing concentrations, then sub-optimal HRF) | lowest concentration at which a priming effect was observed ([1]; then sub-optimal HRF or TNF-α) [ng/mL] | priming effect, virus integrated in converse transcriptional orientation [2] | effect on active HIV-1 infection / transcription (GFP MCF) [3] | effect on active HIV-1 infection / transcription (GFP MCF) ([3]; listed as Dactinomycin) | priming for reactivation in combination with sub-optimal TNF-α ([4]; 18 hours pretreatment) | HIV-1 reactivating capacity by itself ([4]; no activator) | concentration range of efficient priming of latent HIV-2 infection ([5]; 18 hours pretreatment, then sub-optimal HRF) [ng/mL] | HIV-2 reactivation levels on costimulation ([5]; dactinomycin pretreatment plus sub-optimal HRF) | reactivation of latent HIV-1 infection [6] | reactivation of latent HIV-1 infection [7]
Cc1c2oc3c(C)ccc(C(=O)N[C@@H]4C(=O)N[C@H](C(C)C)C(=O)N5CCC[C@H]5C(=O)N(C)CC(=O)N(C)[C@@H](C(C)C)C(=O)O[C@@H]4C)c3nc-2c(C(=O)N[C@@H]2C(=O)N[C@H](C(C)C)C(=O)N3CCC[C@H]3C(=O)N(C)CC(=O)N(C)[C@@H](C(C)C)C(=O)O[C@@H]2C)c(N)c1=O [dactinomycin] (I: T[dV]P[Sar][NMeV] / II: T[dV]P[Sar][NMeV]; ester I:1-I:C, II:1-II:C; linker I:N-II:N via Actinocin(9to1)) | ≥ 10 | also observed | about 4 ng/ml and ~3.18 nM | exerted its priming effect in each integration scenario | strong priming effect | 0.5 | exerted its priming effect in each integration scenario | without boosting active HIV-1 infection | did not boost active infection, but rather inhibited active infection | potently primed latent HIV-1 infection for reactivation | did not exhibit HIV-1 reactivating capacity by itself | 2 to 8 | up to 90% |  | 
lipopolysaccharide |  |  |  |  |  |  |  |  |  |  |  |  |  | only reactivated HIV-1 infection in the latently HIV-1 infected monocytic THP89GFP cells | reactivated HIV-1 infection
